Laboratory results as given in patent US4235886A, “Cyclic hexapeptide somatostatin analogs” (Merck & Co., Inc., priority 1979, dated 1980).
Non-standard residues stand in square brackets, D forms with d. Residues, ends and D or L forms follow the SMILES beside them. dTrp(5-F) = N[C@H](Cc1c[nH]c2ccc(F)cc12)C(=O)O; Orn = NCCC[C@H](N)C(=O)O; Abu = CC[C@H](N)C(=O)O

Legend:
[1] = system: Rat pituitaries (growth hormone release); assay: In vitro inhibition of growth hormone release from cultured rat pituitary cells; format: cell-based; details: multiples or fractions of the effect of somatostatin (= 1), fiducial limits in parentheses, 4 hours incubation, radioimmunoassay
Protocol: The instant cyclic hexapeptide analogs of somatostatin are tested and compared with the effects of somatostatin in an in vitro test for the inhibition of growth hormone. The test is described as follows:
"Rat pituitaries were isolated according to the procedures of Vale and Grant "In vitro Pituitary Hormone Secretion Assay for Hypophysiotropic Substances" in Methods in Enzymology. Vol. XXXVII, eds. O'Malley, B. W. and Hardman, J. G. (Academic Press, Inc., New York) pp. 5-93 (1975).
After 4 days in culture, the cells were washed and incubated for 4 hours in Dulbecco-modified Eagle's medium in the presence or absence of graded doses of each analog or somatostatin. The medium was then collected for subsequent growth hormone determination by a double antibody radioimmunoassay for rat growth hormone."
The test results for some of the compounds of this invention are recorded below with the results for somatostatin listed first and given the arbitrary value of 1. The results for the instant compounds are given as multiples or fractions of the effect of somatostatin. The numbers in parentheses are the fiducial limits for the number preceding. The first of the instant compounds listed is the compound prepared in Example 1-5. The compound is written slightly different, however, to conform to the order of the amino acids found in somatostatin.

[2] = system: pentagastrin evoked gastric secretion in the chronic fistula dog; assay: Inhibition of pentagastrin evoked gastric secretion in the chronic fistula dog; format: in vivo; details: dose 0.8 μg/ml./min., infusion 0-60 min, pentagastrin 2.5 μg./kg./hour i.v., relative to placebo trial; for Gastric Secretion % Inhibition, Acid Concentration, 0-30 / Gastric Secretion % Inhibition, Vol., 0-30: 0-30 min; for Gastric Secretion % Inhibition, Acid Concentration, 30-60 / Gastric Secretion % Inhibition, Vol., 30-60: 30-60 min; for Gastric Secretion % Inhibition, Acid Concentration, 60-90 / Gastric Secretion % Inhibition, Vol., 60-90: 60-90 min; for Gastric Secretion % Inhibition, Acid Concentration, 90-120 / Gastric Secretion % Inhibition, Vol., 90-120: 90-120 min; for Gastric Secretion % Inhibition, Vol., 0-30 / Gastric Secretion % Inhibition, Vol., 30-60 / Gastric Secretion % Inhibition, Vol., 60-90 / Gastric Secretion % Inhibition, Vol., 90-120: volume
Protocol: The effects of the instant cyclichexapeptide analogs of somatostatin are determined by the following procedure.
Compounds were tested for their ability to inhibit pentagastrin evoked gastric secretion in the chronic fistula dog. Female beagle dogs with a chronic gastric fistula were given pentagastrin (2.5 μg./kg./hour, i.v. from -60 to 120 min.) and gastric outputs were collected via the fistula cannula. Samples were analyzed at 30 minute intervals for volume (ml.) and titratable acid (mEq/L) (Titration to pH 7 with 0.01 N NaOH); total acid output (mEq) was calculated as the production of output volume and acid concentration. Test compounds were infused at a constant rate from 0 to 60 minutes. Data have been expressed as percent change of total acid output relative to a placebo trial in the same animals.

Structure (SMILES): C[C@@H]1NC(=O)[C@@H]2CCCN2C(=O)[C@H](Cc2ccccc2)NC(=O)[C@H]([C@@H](C)O)NC(=O)[C@H](CCCCN)NC(=O)[C@@H](Cc2c[nH]c3ccccc23)NC1=O [Cyclo(Pro-Ala-d-Trp-Lys-Thr-Phe)] (cyclo(A[dW]KTFP))
- Growth Hormone Release Inhibition In Vitro [1]: 0.19 (0.1-0.38)

Structure (SMILES): CC(C)C[C@@H]1NC(=O)[C@@H]2CCCN2C(=O)[C@H](Cc2ccccc2)NC(=O)[C@H]([C@@H](C)O)NC(=O)[C@H](CCCCN)NC(=O)[C@@H](Cc2c[nH]c3ccccc23)NC1=O [Cyclo(Pro-Leu-D-Trp-Lys-Thr-Phe)] (cyclo(FPL[dW]KT))
- Growth Hormone Release Inhibition In Vitro [1]: 0.29 (0.13-0.57)

Structure (SMILES): C[C@@H](O)[C@@H]1NC(=O)[C@H](CCCCN)NC(=O)[C@@H](Cc2c[nH]c3ccc(F)cc23)NC(=O)[C@H](Cc2ccccc2)NC(=O)[C@@H]2CCCN2C(=O)[C@H](Cc2ccccc2)NC1=O [Cyclo(Pro-Phe-D-5F-Trp-Lys-Thr-Phe)] (cyclo(FPF[dTrp(5-F)]KT))
- Growth Hormone Release Inhibition In Vitro [1]: 2.4 (2.1-2.8)

Structure (SMILES): CC(C)C[C@@H]1NC(=O)[C@H]([C@@H](C)O)NC(=O)[C@H](CCCCN)NC(=O)[C@@H](Cc2c[nH]c3ccccc23)NC(=O)[C@H](Cc2ccccc2)NC(=O)[C@@H]2CCCN2C1=O [Cyclo(Pro-Phe-D-Trp-Lys-Thr-Leu)] (cyclo(F[dW]KTLP))
- Growth Hormone Release Inhibition In Vitro [1]: 0.16 (0.07-0.33)

Structure (SMILES): C[C@@H](O)[C@@H]1NC(=O)[C@H](CCCCN)NC(=O)[C@@H](Cc2c[nH]c3ccccc23)NC(=O)[C@H](Cc2ccccc2)NC(=O)[C@@H]2CCCN2C(=O)[C@H](Cc2ccccc2)NC1=O [Cyclo(Pro-Phe-D-Trp-Lys-Thr-Phe)] (cyclo(PF[dW]KTF))
- Gastric Secretion % Inhibition, Acid Concentration, 0-30 [2]: 18%
- Gastric Secretion % Inhibition, Acid Concentration, 30-60 [2]: 47%
- Gastric Secretion % Inhibition, Acid Concentration, 60-90 [2]: 54%
- Gastric Secretion % Inhibition, Acid Concentration, 90-120 [2]: 68%
- Gastric Secretion % Inhibition, Vol., 0-30 [2]: 88%
- Gastric Secretion % Inhibition, Vol., 30-60 [2]: 98%
- Gastric Secretion % Inhibition, Vol., 60-90 [2]: 95%
- Gastric Secretion % Inhibition, Vol., 90-120 [2]: 86%
- Growth Hormone Release Inhibition In Vitro [1]: 1.71 (1.31-2.32)

Structure (SMILES): NCCCC[C@@H]1NC(=O)[C@@H](Cc2c[nH]c3ccccc23)NC(=O)[C@H](Cc2ccccc2)NC(=O)[C@@H]2CCCN2C(=O)[C@H](Cc2ccccc2)NC(=O)[C@H](CO)NC1=O [Cyclo(Pro-Phe-D-Trp-Lys-ser-Phe)] (cyclo(FPF[dW]KS))
- Growth Hormone Release Inhibition In Vitro [1]: 1.4 (1.1-1.7)

Structure (SMILES): CC[C@@H]1NC(=O)[C@H](CCCCN)NC(=O)[C@@H](Cc2c[nH]c3ccccc23)NC(=O)[C@H](Cc2ccccc2)NC(=O)[C@@H]2CCCN2C(=O)[C@H](Cc2ccccc2)NC1=O [Cyclo(Pro-Phe-D-Trp-Lys-α-ABU-Phe)] (cyclo([Abu]FPF[dW]K))
- Growth Hormone Release Inhibition In Vitro [1]: 0.82 (0.57-1.18)

Structure (SMILES): C[C@@H](O)[C@@H]1NC(=O)[C@H](CCCN)NC(=O)[C@@H](Cc2c[nH]c3ccccc23)NC(=O)[C@H](Cc2ccccc2)NC(=O)[C@@H]2CCCN2C(=O)[C@H](Cc2ccccc2)NC1=O [Cyclo(Pro-Phe-D-Trp-Orn-Thr-Phe)] (cyclo(FPF[dW][Orn]T))
- Growth Hormone Release Inhibition In Vitro [1]: 0.16(0.15-0.17)

Structure (SMILES): C[C@@H](O)[C@@H]1NC(=O)[C@H](CCCCN)NC(=O)[C@H](Cc2c[nH]c3ccccc23)NC(=O)[C@H](Cc2ccccc2)NC(=O)[C@@H]2CCCN2C(=O)[C@H](Cc2ccccc2)NC1=O [Cyclo(Pro-Phe-L-Trp-Lys-Thr-Phe)] (cyclo(FPFWKT))
- Growth Hormone Release Inhibition In Vitro [1]: 1.59 (1.33-1.92)

Structure (SMILES): C[C@@H](O)[C@@H]1NC(=O)[C@H](CCCCN)NC(=O)[C@@H](Cc2c[nH]c3ccccc23)NC(=O)[C@H](Cc2ccc(O)cc2)NC(=O)[C@@H]2CCCN2C(=O)[C@H](Cc2ccccc2)NC1=O [Cyclo(Pro-Tyr-D-Trp-Lys-Thr-Phe)] (cyclo(FPY[dW]KT))
- Gastric Secretion % Inhibition, Acid Concentration, 0-30 [2]: 30%
- Gastric Secretion % Inhibition, Acid Concentration, 30-60 [2]: 49%
- Gastric Secretion % Inhibition, Acid Concentration, 60-90 [2]: 52%
- Gastric Secretion % Inhibition, Acid Concentration, 90-120 [2]: 27%
- Gastric Secretion % Inhibition, Vol., 0-30 [2]: 67%
- Gastric Secretion % Inhibition, Vol., 30-60 [2]: 87%
- Gastric Secretion % Inhibition, Vol., 60-90 [2]: 87%
- Gastric Secretion % Inhibition, Vol., 90-120 [2]: 64%
- Growth Hormone Release Inhibition In Vitro [1]: 14.3 (8.3-33.0)
